Assay results reported in patent publication US11617748B2, “Meclozine derivatives and diclazuril derivatives for use in the prevention and/or the treatment of disorders associated to the inflammation induced by P. acnes” (priority 2016, dated 2023).

How the values were obtained:
Format in all cases: cell-based, human
HaCaT cells = test: MTT cell viability assay on HaCaT keratinocytes
Method: Cell culture, pretreatment and stimulation. The immortalized human keratinocyte cell line HaCaT, fibroblast MRC5 were grown in Dulbecco's modified Eagle's medium-Glutamax-I (DMEM) with 1 mM sodium pyruvate. […] DMEM and RPMI were supplemented with 0.1% and 10% heat-inactivated fetal calf serum (Invitrogen), and an antibiotic/antimycotic solution (10 U/ml Pencillin, 10 μg/ml Streptomycin, 0.25 μg/ml Amphoterin) at 37° C. in humidified atmosphere containing 5% CO2 as described (Life Technologie). Primary human keratinocytes (NHDK) and fibroblast (HDF) were grown in the KGM-Gold and in FGM-2 Bullet Kit, respectively, as described by the manufacturer (Lonza). The immortalized cell lines were routinely tested to assess the absence of Mycoplasma infection. Cells, cultivated in 6- or 96-well polystyrene plates, were pretreated with appropriate molecule solution for 1 to 48 h at 37° C. in the dark at the appropriate concentration. Then, for stimulation, cells were incubated for 15 min to 24 h with the P. acnes suspension adjusted at the appropriate concentration at 37° C. in 5% CO2. For experiences using an in vitro model of psoriasis, the primary human keratinocytes (NHDK) were grown in culture medium for 24 hours.
Cell viability assays. Viability of cells was estimated by using the MTT assay where cells were incubated with a 0.2% MTT solution in cell culture medium for 4 h at 37° C. The MTT solution was then discarded and DMSO added to solubilize the MTT-formazan cristals produced in living cells. After thorough mixing, the absorbance was measured at 540 nm.

PI3K = test: Western blot of p-PI3K/PI3K in P. acnes-stimulated HaCaT cells; conditions: 25 μM, 24 h pre-treatment
Method: (§1) Western Blot analysis. Whole cell protein extracts (25 μg) were separated by electrophoresis (LDS-PAGE) under denaturing conditions with NuPAGE Novex 4-12% Bis-Tris gel (1 mm, 12 wells, Invitrogen, UK) and proteins were transferred onto nitrocellulose membranes and saturated in 20 ml of saturation buffer consisting of TBS 1× (Tris Buffered Saline) containing 200 mM Tris, 1.4 M NaCl (pH 7.6), 5% no fat milk, 0.1% Tween 20 for 1 h. […] After washing to remove unbound antibodies, bound primary antibodies were detected by incubation for 1 h using secondary antibody against rabbit- and mouse IgG (Santa Cruz Biotechnology, SC-2357, 1:5000 and SC-2005, 1:5000, respectively). Unbound material was removed by washing and peroxidase activity was detected in a chemiluminescence assay (WesternBright ECL, Advansta, Menlo Park, USA). […]

IL-1β mRNA = test: RT-qPCR of P. acnes-induced IL-1β mRNA in ThP-1 cells; conditions: 10 μM, 24 h pre-treatment, 5 h P. acnes
Method: RT-qPCR assay. […] Total RNA was isolated using the NucleoSpin RNA and treated with DNAse I, according to the manufacturer's instructions (Macherey-Nagel, Hoerdt, France). RNA concentration was determined at 260 nm on a nanodrop (Labtech, France) and the ratios for all samples were ranging between 1.6 and 1.9. Complementary DNA were generated from 100 ng of total RNA at 50° C. for 10 min followed by the quantitative PCR analysis, carried out in the LightCycler Nano (Roche), and performed with the iTaq Universal SYBR Green One-Step kit (Bio-Rad Laboratories, Hercules, Calif., USA) with a 2-step cycles conditions set at 95° C. for 60 s followed by 40 cycles of 95° C. for 15 s, 68° C. for 60 s, and ended by a melting curve at 65-95° C., 60 s with 0.1° C./s. From the amplification curves, the threshold cycles (Ct) are determined for the studied genes. The amount of relative RNA in stimulated cells relative to control cells is calculated according to the method of 2Act and expressed as a relative fold change expression normalized to gene expression of internal control (GAPDH). IL-8 primers were used: sens 5′-[sequence]-3′, anti-sens 5′-[sequence]-3′ and GAPDH primers: sens 5′-[sequence]-3′, GADPH anti-sens 5′-[sequence]-3′. Sample quantification was made in triplicate.
Controls experiments were done with unpretreated/unstimulated cell and with P. acnes stimulated cells only.

PPARβ = test: Western blot of PPARβ expression in P. acnes-stimulated HaCaT cells; conditions: 25 μM, 24 h pre-treatment
Method: as §1

PKC = test: Western blot of p-PKC/PKC in P. acnes-stimulated HaCaT cells; conditions: 25 μM, 24 h pre-treatment
Method: as §1

IκB = test: Western blot of IκB / p-IκB in P. acnes-stimulated HaCaT cells; conditions: 24 h pre-treatment; for degradation of p-IκB: 25 μM, P. acnes 30 min-24 h
Method: Western Blot analysis. Whole cell protein extracts (25 μg) were separated by electrophoresis (LDS-PAGE) under denaturing conditions with NuPAGE Novex 4-12% Bis-Tris gel (1 mm, 12 wells, Invitrogen, UK) and proteins were transferred onto nitrocellulose membranes and saturated in 20 ml of saturation buffer consisting of TBS 1× (Tris Buffered Saline) containing 200 mM Tris, 1.4 M NaCl (pH 7.6), 5% no fat milk, 0.1% Tween 20 for 1 h. After washing three times for 15 min with 15 ml of TBS/T buffer [1×TBS, 0.1% Tween-20], membranes were incubated overnight with gentle mixing at 4° C. with 10 ml of rabbit polyclonal primary antibodies against human ICAM-1 (SC-7891, 1:500), PPARα (SC-398394, 1:250), PPARβ (SC-74517, 1:200), PPARγ (SC-7196, 1:500), IκB (SC-371, 1:500), p-IκB (SC-7977, 1:500), Cox-2 (SC-7951, 1:250), p-mTOR (CS, Ref 2974, 1:1000), mTOR (CS, Ref 2972, 1:1000), p-p38 (SC-17852, 1:500), p38 (SC-535, 1:250), ERK (SC-94, 1:500), JNK (SC-571, 1:500), and mouse monoclonal primary antibodies against human p-PI3 kinase (CS, Ref 4228, 1:250), PI3 kinase (CS, Ref 4257, 1:250), p-Akt1/2/3 (SC-81433, 1:500), p-ERK (SC-7383, 1:500), p-JNK (SC-6254, 1:500), -actin used to control loading, (SC-47778, 1:1000) diluted in TBS/T supplemented with 5% BSA (antibodies were purchased from Santa Cruz Biotechnology, Inc., Santa Cruz, Calif., USA abbreviated SC; and from Cell Signaling Technology, Inc. Leiden, The Netherlands abbreviated CS above). After washing to remove unbound antibodies, bound primary antibodies were detected by incubation for 1 h using secondary antibody against rabbit- and mouse IgG (Santa Cruz Biotechnology, SC-2357, 1:5000 and SC-2005, 1:5000, respectively). Unbound material was removed by washing and peroxidase activity was detected in a chemiluminescence assay (WesternBright ECL, Advansta, Menlo Park, USA).
The molecular basis for the inhibition of IL-8 production by diclazuril and meclozine has been investigated, in particular it has been evaluated if they interfered with signaling pathways known to be activated when keratinocytes are stimulated with P. acnes. […]

hBD-2 production = hBD-2 production by M5-stimulated NHDK, in vitro psoriasis-like model (ELISA); conditions: NHDK + M5, 48 h
Method: Cell culture, pretreatment and stimulation.
ELISA. Human IL-1β, IL-8, hBD-2 and TNF-α protein concentration were measured in the supernatants of stimulated cells using various ELISA Sets (all from Ready-Set-Go from eBioscience, except hBD-2 measurements: Human DEFB4A/BD-2 ELISA Kit from LSBio) according to the manufacturer's instructions. We used serial dilutions of recombinant human IL-1β, IL-8, hBD-2 and TNF-α for standard curve. The optical density was determined at 450 nm at a wavelength correction of 540 nm.

p38 = test: Western blot of p-p38/p38 in P. acnes-stimulated HaCaT cells; conditions: 25 μM, 24 h pre-treatment
Method: as §1

| Structure (SMILES) | impact on cell viability (MTT), 48 h pre-treatment (HaCaT cells) | phosphorylation of PI3K induced by P. acnes (PI3K) | inhibition of IL-1β mRNA production (IL-1β mRNA) | expression of PPARβ (PPARβ) | phosphorylation of PKC induced by P. acnes (PKC) | degradation of IκB (IκB; 10 μM, P. acnes 15-180 min) | degradation of p-IκB (IκB) | decrease of hBD-2 production (hBD-2 production; at 12.5 μM) [%] | phosphorylation of p38 induced by P. acnes (p38) | effect on hBD-2 production, in words (hBD-2 production; 0.39 to 12.5 μM) |
| --- | --- | --- | --- | --- | --- | --- | --- | --- | --- | --- |
| N#CC(c1ccc(Cl)cc1)c1c(Cl)cc(-n2ncc(=O)[nH]c2=O)cc1Cl (centres unmarked) [diclazuril, Diclazuril] | without any major impact on cell viability | prevented the phosphorylation | up to 91% | no change | prevented the phosphorylation | did not prevented the degradation of IκB | did not alter the degradation of p-IκB | 68 | prevented the phosphorylation |  |
| Cc1cccc(CN2CCN(C(c3ccccc3)c3ccc(Cl)cc3)CC2)c1 (centres unmarked) [meclozine, Meclozine] | without any major impact on cell viability | prevented the phosphorylation | ≤ 38% | strongly decrease | prevented the phosphorylation |  | did not alter the degradation of p-IκB |  | prevented the phosphorylation | no effect |
